Results published in patent US8637522B2, “Pyrazinone derivatives as insulin secretion stimulators, methods for obtaining them and use thereof for the treatment of diabetes” (Merck Patent GmbH, priority 2008, dated 2014).

Tests used:
INS-1 cells = experiment: Insulin secretion assay in INS-1 cells (glucose at 4.2 mM); type: cell-based; conditions: Rattus norvegicus, INS1, glucose 4.2 mM, 1 h incubation; for activity at 10 µM: compound 10 μM, read-out: Insulin secretion, % of ctrl at 10 μM; for activity at 50 µM: compound 50 μM, read-out: Insulin secretion, % of ctrl at 50 μM
Method: Culture of Pancreatic INS-1 Cells
INS-1 cells were cultured in complete medium, RPMI 1640 containing 1 mM sodium pyruvate, 50 μM 2-mercaptoethanol, 2 mM glutamine, 10 mM HEPES, 100 IU/mL penicillin, and 100 μg/mL streptomycin (CM), supplemented with 10 mM glucose, and 10% (vol/vol) heat-inactivated fetal calf serum (FCS), as described by Asfari et al. (Endocrinology 130: 167-178, 1992).
INS-1 cells were plated and cultured in 48-well plates. After 2 days of culture, the medium was removed and cells were cultured for 24 h with a medium change to 5 mM glucose, 1% FCS. The cells were then washed with Krebs-Ringer Bicarbonate HEPES buffer (KRBH; 135 mM NaCl; 3.6 mM KCl; 5 mM NaHCO3; 0.5 mM NaH2PO4;
0.5 mM MgCl2; 1.5 mM CaCl2 and 10 mM HEPES; pH 7.4) 0.1% BSA containing 2.8 mM glucose and preincubated for 30 min at 37° C. in the same buffer. The cells were then washed twice and incubated for 1 h in KRBH 0.1% BSA containing 4.2 mM glucose and different concentrations of the tested molecule. Insulin concentration in the collected supernatants was measured with ELISA using rat insulin antibody (Insulin Rat Elit PLUS, cat. ref 10-1145-01).
Insulin secretion results are expressed in % of control (glucose 4.2 mM).
Insulin Secretion in INS-1 Cells (Glucose at 4.2 mM)

[1] = system: diabetic N0STZ rat islets; experiment: Insulin secretion in diabetic N0STZ rat islets; type: cell-based; conditions: 90 min, mean ± SEM
Method: Insulin Secretion in Diabetic N0STZ Rat Islets. Materials and Methods. Islets Isolation and Treatments.
14±3 weeks non-fasted N0STZ (PORTHA et al., 1974) male rats (Charles Rivers-Domaine des Oncins, I'Arbresle, France) were anesthetised with sodium pentobarbital (Nembutal®: 45 mg/kg in 5 ml/kg administered intra peritoneally) and body temperature was maintained with a heat lamp.
Rat pancreatic islets of Langerhans were isolated from the pancreas of 8 rats by collagenase P (Boehringer, Meylan, France) digestion. Islets were purified by sedimentation in Hanks balanced salt solution [NaCl (137 mM); KCl (5.36 mM); MgSO4, 7H2O (0.81 mM); Na2HPO4, 12H2O (0.34 mM); KH2PO4 (0.44 mM); CaCl2, 2H2O (1.26 mM); NaHCO3 (4.17 mM)] followed by Ficoll gradient separation.
Islets were then hand-picked under stereoscopic microscope and batches of 3 islets were incubated for 90 minutes at 37° C. with continuous shaking under a humidified condition (95% O2, 5% CO2) in 1 ml of Krebs/Hepes pH 7 solution [NaCl (115 mM), NaHCO3 (24 mM), KCl (5 mM), MgCl2 (1 mM), CaCl2, 2H2O (1 mM), 0.2% of Bovine serum albumin (Fraction V, fatty acid free, Boehringer, Mannheim), 10 mM Hepes] containing the required glucose or compound concentration.
Compounds were dissolved in DMSO at 2.10-2M stock solutions. They were then diluted at the required concentration in Krebs/Hepes buffer containing the required glucose concentration.
At the end of incubation, media was collected and insulin levels were measured using ELISA (EUROBIO, Courtaboeuf, France).
Islets were hand-picked and incubated in the presence of increasing concentrations of compounds in the presence of glucose at 2.8 or 8 mM. At the end of incubation, media was collected and insulin levels were measured using ELISA method. Results are expressed as % of glucose control (2.8 or 8 mM) and represent Means±SEM.

[2] = glucose 2.8 mM, compound 10−4 M

| SMILES | melting point [°C] | activity at 10 µM (INS-1 cells) [%] | activity at 50 µM (INS-1 cells) [%] | also measured |
| --- | --- | --- | --- | --- |
| CCn1ccnc(S(=O)(=O)Cc2ccccc2)c1=O [Example 6, 3-benzylsulfonyl-1-ethylpyrazin-2(1H)-one] |  | 128 | 184 |  |
| CCCCn1ccnc(S(=O)(=O)Cc2ccccc2F)c1=O [Example 10-3, 1-butyl-3-[(2-fluorobenzyl)sulfonyl]pyrazin-2(1H)-one] |  | 108 | 236 |  |
| CCCCn1ccnc(S(=O)(=O)Cc2cccc(C(F)(F)F)c2)c1=O [Example 10-4, 1-butyl-3-[(3-trifluoromethylbenzyl)sulfonyl]pyrazin-2(1H)-one] |  | 187 | 272 |  |
| CCCCn1ccnc(S(=O)(=O)Cc2ccc(Cl)cc2)c1=O [Example 10-5, 1-butyl-3-[(4-chlorobenzyl)sulfonyl]pyrazin-2(1H)-one] |  | 153 | 261 |  |
| CCCn1ccnc(S(=O)(=O)CCc2ccc(Cl)cc2)c1=O [Example 10-6] |  | 127 | 180 |  |
| CCn1cc(-c2ccc(Cl)cc2)nc(S(=O)(=O)Cc2ccc(Cl)cc2)c1=O [Example 14-2, 3-[(4-chlorobenzyl)sulfonyl]-5-(4-chlorophenyl)-1-ethylpyrazin-2(1H)-one] |  | 181 |  |  |
| CCn1cc(Cl)nc(S(=O)(=O)CC(=O)N2CCCCC2)c1=O [Example 18-2, 5-chloro-1-ethyl-3-[(2-oxo-2-piperidin-1-ylethyl)sulfonyl]pyrazin-2(1H)-one] |  | 159 | 213 |  |

Further lines, with some results ahead:

| melting point [°C] | SMILES | activity at 10 µM (INS-1 cells) [%] | activity at 50 µM (INS-1 cells) [%] | also measured |
| --- | --- | --- | --- | --- |
| 115 to 118 | CCn1ccnc(S(=O)(=O)Cc2ccc(Cl)cc2)c1=O [Example 6-2, 3-[(4-chlorobenzyl)sulfonyl]-1-ethylpyrazin-2(1H)-one] | 142 | 276 |  |
| 128 to 130 | CCCn1ccnc(S(=O)(=O)Cc2ccc(C)cc2)c1=O [Example 6-3, 3-[(4-methylbenzyl)sulfonyl]-1-propylpyrazin-2(1H)-one] | 144 | 207 | Insulin secretion, % of glucose control [1, 2]: 121 ± 7 % of glucose control; Insulin secretion, % of glucose control ([1]; glucose 8 mM, compound 10−4 M): 271 ± 5 % of glucose control; Insulin secretion, % of glucose control ([1]; glucose 8 mM, compound 10−5 M): 131 ± 5 % of glucose control; Insulin secretion, % of glucose control ([1]; glucose 8 mM, compound 10−6 M): 108 ± 5 % of glucose control; Insulin secretion, % of glucose control ([1]; glucose 8 mM, compound 10−7 M): 101 ± 6 % of glucose control |
| 123 to 125 | CCCn1ccnc(S(=O)(=O)Cc2ccc(F)cc2)c1=O [Example 6-4, 3-[(4-fluorobenzyl)sulfonyl]-1-propylpyrazin-2(1H)-one] | 142 | 203 |  |
| 133 to 135 | CCCn1ccnc(S(=O)(=O)Cc2ccccc2)c1=O [Example 6-5, 3-(benzylsulfonyl)-1-propylpyrazin-2(1H)-one] |  |  |  |
| 135 to 138 | CCn1ccnc(S(=O)(=O)Cc2ccc(Br)cc2)c1=O [Example 6-6, 1-ethyl-3-[(4-bromobenzyl)sulfonyl]pyrazin-2(1H)-one] | 164 | 362 |  |
| 125 to 128 | CCCn1ccnc(S(=O)(=O)Cc2ccc(Cl)cc2)c1=O [Example 10, 3-[(4-chlorobenzyl)sulfonyl]-1-propylpyrazin-2(1H)-one] | 155 | 331 | Insulin secretion, % of glucose control [1, 2]: 178 ± 7 % of glucose control; Insulin secretion, % of glucose control ([1]; glucose 8 mM, compound 10−4 M): 203 ± 11 % of glucose control; Insulin secretion, % of glucose control ([1]; glucose 8 mM, compound 10−5 M): 133 ± 7 % of glucose control; Insulin secretion, % of glucose control ([1]; glucose 8 mM, compound 10−6 M): 90 ± 4 % of glucose control; Insulin secretion, % of glucose control ([1]; glucose 8 mM, compound 10−7 M): 84 ± 7 % of glucose control |
| 100 to 103 | CCn1ccnc(S(=O)(=O)CCOc2ccc(OC)cc2)c1=O [Example 10-7, 1-ethyl-3-{[2-(4-methoxyphenoxy)ethyl]sulfonyl}pyrazin-2(1H)-one] |  |  |  |
| 145 to 147 | CCn1cc(Br)nc(S(=O)(=O)Cc2ccc(Cl)cc2)c1=O [Example 13, 5-bromo-3-[(4-chlorobenzyl)sulfonyl]-1-ethylpyrazin-2(1H)-one] |  |  |  |
| 146 to 148 | CCn1cc(-c2ccccc2)nc(S(=O)(=O)Cc2ccc(Cl)cc2)c1=O [Example 14, 3-[(4-chlorobenzyl)sulfonyl]-1-ethyl-5-phenylpyrazin-2(1H)-one] |  |  |  |
| 156 to 158 | CCn1cc(Cl)nc(SCC(=O)Nc2ccccc2)c1=O [Example 17, 2-[(6-chloro-4-ethyl-3-oxo-3,4-dihydropyrazin-2-yl)thio]-N-phenylacetamide] |  |  |  |
| 178 to 180 | CCn1cc(Cl)nc(S(=O)(=O)CC(=O)Nc2ccccc2)c1=O [Example 18, 2-[(6-chloro-4-ethyl-3-oxo-3,4-dihydropyrazin-2-yl)sulfonyl]-N-phenylacetamide] |  |  |  |
